From publication PMC2844763 (Bioorganic & medicinal chemistry letters, 2010)
“Also recorded” adds a separate entry of the source.

Legend:
E. coli MetAP = E. coli MetAP (Escherichia coli, UniProt P0AE18); experiment: cell-based MetAP assay; conditions: Ca(II) treated cells; result in words
E. coli AS19 strain = conditions: result in words; ref [11] and [16]; cited from earlier work
[1] = system: E. coli MetAP in the Fe(II)-form; conditions: result in words; ref [11] and [16]; cited from earlier work
MetAP in the Co(II)-form = conditions: result in words; ref [10]; cited from earlier work

Sequence of E. coli MetAP (P0AE18 whole entry): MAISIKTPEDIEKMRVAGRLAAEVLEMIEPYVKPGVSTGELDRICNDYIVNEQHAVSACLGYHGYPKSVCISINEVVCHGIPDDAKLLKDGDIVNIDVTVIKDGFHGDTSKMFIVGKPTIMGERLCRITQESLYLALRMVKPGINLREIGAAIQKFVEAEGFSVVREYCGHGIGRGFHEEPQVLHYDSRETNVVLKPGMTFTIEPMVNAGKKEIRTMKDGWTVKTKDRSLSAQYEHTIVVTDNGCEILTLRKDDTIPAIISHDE

SMILES	inhibition of intracellular Met-AMC hydrolysis (cellular MetAP activity) (E. coli MetAP)	inhibition of bacterial growth (E. coli AS19 strain)	inhibition of purified MetAP in the Fe(II)-form [1]	potency and selectivity towards purified MetAP in the Co(II)-form (MetAP in the Co(II)-form)
Cc1nc(-c2ccc(O)c(O)c2)cs1 [compound 1]	displayed inhibition; also recorded: inhibited in a time-dependent fashion	–	–	–
COc1ccc(-c2csc(C)n2)cc1OC [compound 2]	decreased potency	–	–	–
Cc1nc(-c2cccc(O)c2)cs1 [compound 3]	no inhibition	–	–	–
Cc1nc(-c2ccc(O)cc2O)cs1 [compound 4]	no inhibition	–	–	–
O=C(NC1CC1)c1ccc(-c2ccc(O)c(O)c2)s1 [compound 22]	exceptions	–	–	–
O=C(NC1CC1)c1ccsc1-c1ccc(O)c(O)c1 [compound 23]	exceptions	–	–	–
O=C(O)c1ccc(-c2ccccc2Cl)o1 [compound 28]	–	did not halt bacterial growth	weak inhibition	–
O=C(O)c1ccc(-c2cc(Cl)ccc2Cl)o1 [compound 29]	–	did not halt bacterial growth	weak inhibition	–
O=C(Nc1nccs1)C(=O)NC1CCCC1 [compound 30]	no inhibition	did not halt bacterial growth	weak inhibition	highly potent and selective
O=C(NCc1ccccn1)C(=O)Nc1nccs1 [compound 31]	no inhibition	did not halt bacterial growth	weak inhibition	highly potent and selective
